Reference: publication PMC5190074, “BET inhibition as a new strategy for the treatment of gastric cancer” (Oncotarget, 2016)

How the values were obtained:
Experiment in all cases: biochemical
Parameters in all cases: thermal shift assay (real-time PCR machine), melting temperature shift of recombinant bromodomains at 2 uM protein
ATAD2 = target: T1, ATAD2 (Homo sapiens, UniProt Q6PL18)
T1 construct: bromodomain
Method: (§1) The recombinant bromodomains at 2 μM were mixed with 10 μM inhibitors. The assays and data evaluation for melting temperatures were performed using a Real-Time PCR Mx3005p machine (Stratagene) and the protocols previously described. Experiments profiling the final compound (PNZ5) were performed in quadruplicates. […] Since its discovery in our own labs, similar inhibitors have also been disclosed by researchers at Boehringer Ingelheim [reference: patent, WO 2014/154760 [31]]. The inhibitor contains two possible acetyl-lysine mimetic moieties. In order to obtain molecular insights on the interaction of the developed inhibitor, the crystal structure of the first bromodomain of BRD4 in complex with PNZ5 was solved at 1.85 Å (Figure 2C and Supplementary Table 4, 5FBX.pdb). The inhibitor, coordinating residues and water molecules were well defined by the electron density. The dimethylisoxazole moiety mimicked the acetyl lysine side chain and formed two canonical hydrogen-bond interactions with Asn140 and water mediated hydrogen-bond with Tyr 97 (Figure 2C). The common network of waters within the binding site was also conserved in the BRD4(1)-PNZ5 complex. The compound was further stabilized by lipophilic interactions with residues forming the binding site Leu92, Leu94, Ile146. The [compound left out] substituent was well accommodated next to the WPF shelf, as well as the N1-methyl substituent that formed hydrophobic interactions with Trp81. The carbonyl on the isoindolinone established a water-mediated hydrogen bond with Lys91.

TAF1L(1) = target: T2, TAF1L(1) (Homo sapiens, UniProt Q8IZX4)
T2 construct: bromodomain 1
T2 sequence (Q8IZX4 whole entry): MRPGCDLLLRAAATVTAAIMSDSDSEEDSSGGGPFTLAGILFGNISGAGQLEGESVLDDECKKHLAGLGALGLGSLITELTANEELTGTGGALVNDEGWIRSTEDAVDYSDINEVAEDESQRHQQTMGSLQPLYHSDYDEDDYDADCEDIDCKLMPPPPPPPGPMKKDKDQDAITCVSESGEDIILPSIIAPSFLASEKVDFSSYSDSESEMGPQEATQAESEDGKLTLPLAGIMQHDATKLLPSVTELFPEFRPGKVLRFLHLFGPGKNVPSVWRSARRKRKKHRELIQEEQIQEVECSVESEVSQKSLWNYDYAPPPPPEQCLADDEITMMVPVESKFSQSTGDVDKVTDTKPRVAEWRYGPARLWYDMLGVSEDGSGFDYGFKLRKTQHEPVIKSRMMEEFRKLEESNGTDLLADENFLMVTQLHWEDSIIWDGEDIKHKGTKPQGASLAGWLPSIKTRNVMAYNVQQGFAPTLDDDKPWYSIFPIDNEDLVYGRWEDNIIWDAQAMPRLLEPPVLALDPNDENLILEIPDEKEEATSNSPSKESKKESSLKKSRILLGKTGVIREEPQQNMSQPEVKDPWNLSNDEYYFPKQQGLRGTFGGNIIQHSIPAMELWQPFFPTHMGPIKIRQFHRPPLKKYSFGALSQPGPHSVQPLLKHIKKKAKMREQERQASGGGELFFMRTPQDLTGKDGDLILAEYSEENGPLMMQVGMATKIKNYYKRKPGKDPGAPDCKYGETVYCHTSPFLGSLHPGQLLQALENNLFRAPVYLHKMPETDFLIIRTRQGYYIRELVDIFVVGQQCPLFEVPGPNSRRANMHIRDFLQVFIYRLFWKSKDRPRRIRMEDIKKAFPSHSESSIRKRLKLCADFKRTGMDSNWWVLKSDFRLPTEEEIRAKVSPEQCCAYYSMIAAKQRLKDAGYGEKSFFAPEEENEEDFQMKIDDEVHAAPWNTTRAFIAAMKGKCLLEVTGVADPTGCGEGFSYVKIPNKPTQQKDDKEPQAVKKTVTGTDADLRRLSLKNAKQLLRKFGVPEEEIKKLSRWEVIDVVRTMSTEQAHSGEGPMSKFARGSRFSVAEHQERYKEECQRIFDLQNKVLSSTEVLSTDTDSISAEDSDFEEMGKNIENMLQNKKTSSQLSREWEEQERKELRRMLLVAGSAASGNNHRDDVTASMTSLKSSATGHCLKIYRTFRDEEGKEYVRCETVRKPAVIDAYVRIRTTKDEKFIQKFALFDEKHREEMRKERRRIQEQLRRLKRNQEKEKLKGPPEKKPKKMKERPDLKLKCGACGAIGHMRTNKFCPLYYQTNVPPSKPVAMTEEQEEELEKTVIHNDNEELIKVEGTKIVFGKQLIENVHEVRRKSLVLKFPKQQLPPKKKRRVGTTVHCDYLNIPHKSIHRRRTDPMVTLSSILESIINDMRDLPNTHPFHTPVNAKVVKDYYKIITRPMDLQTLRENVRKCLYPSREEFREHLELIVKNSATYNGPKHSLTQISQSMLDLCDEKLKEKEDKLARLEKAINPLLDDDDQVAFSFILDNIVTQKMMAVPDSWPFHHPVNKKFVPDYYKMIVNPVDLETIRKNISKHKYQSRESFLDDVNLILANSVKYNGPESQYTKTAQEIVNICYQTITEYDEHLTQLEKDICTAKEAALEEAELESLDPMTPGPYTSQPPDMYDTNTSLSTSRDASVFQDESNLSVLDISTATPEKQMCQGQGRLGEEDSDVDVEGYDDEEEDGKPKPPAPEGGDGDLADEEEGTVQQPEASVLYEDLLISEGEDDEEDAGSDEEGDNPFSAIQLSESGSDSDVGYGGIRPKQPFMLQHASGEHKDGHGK
Method: as §1

SMARCA4 = target: T3, SMARCA4 (Homo sapiens, UniProt P51532)
T3 construct: bromodomain
Method: as §1

ATAD2B = target: T4, ATAD2B (Homo sapiens, UniProt Q9ULI0)
T4 construct: bromodomain
Method: as §1

BAZ1A = target: T5, BAZ1A (Homo sapiens, UniProt Q9NRL2)
T5 construct: bromodomain
Method: as §1

PHIP(2) = target: T6, PHIP(2) (Homo sapiens, UniProt Q8WWQ0)
T6 construct: bromodomain 2
Method: as §1

BRD1 = target: T7, BRD1 (Homo sapiens, UniProt O95696)
T7 construct: bromodomain
Method: as §1

PCAF = target: T8, PCAF (Homo sapiens, UniProt Q92831)
T8 construct: gene KAT2B; bromodomain
Method: as §1

[1] = target: T9, BRD4(1), first bromodomain of BRD4 (Homo sapiens, UniProt O60885)
T9 construct: first bromodomain; BRD4_HUMAN O60884-1 fragment 44-168 (crystallography)
Method: as §1

PB1(3) = target: T10, PB1(3) (Homo sapiens, UniProt Q86U86)
T10 construct: gene PBRM1; bromodomain 3
Method: as §1

BRPF1A = target: T11, BRPF1A (Homo sapiens, UniProt P55201)
T11 construct: gene BRPF1; isoform A bromodomain
Method: as §1

SMARCA2 = target: T12, SMARCA2 (Homo sapiens, UniProt P51531)
T12 construct: bromodomain
T12 sequence (P51531 whole entry): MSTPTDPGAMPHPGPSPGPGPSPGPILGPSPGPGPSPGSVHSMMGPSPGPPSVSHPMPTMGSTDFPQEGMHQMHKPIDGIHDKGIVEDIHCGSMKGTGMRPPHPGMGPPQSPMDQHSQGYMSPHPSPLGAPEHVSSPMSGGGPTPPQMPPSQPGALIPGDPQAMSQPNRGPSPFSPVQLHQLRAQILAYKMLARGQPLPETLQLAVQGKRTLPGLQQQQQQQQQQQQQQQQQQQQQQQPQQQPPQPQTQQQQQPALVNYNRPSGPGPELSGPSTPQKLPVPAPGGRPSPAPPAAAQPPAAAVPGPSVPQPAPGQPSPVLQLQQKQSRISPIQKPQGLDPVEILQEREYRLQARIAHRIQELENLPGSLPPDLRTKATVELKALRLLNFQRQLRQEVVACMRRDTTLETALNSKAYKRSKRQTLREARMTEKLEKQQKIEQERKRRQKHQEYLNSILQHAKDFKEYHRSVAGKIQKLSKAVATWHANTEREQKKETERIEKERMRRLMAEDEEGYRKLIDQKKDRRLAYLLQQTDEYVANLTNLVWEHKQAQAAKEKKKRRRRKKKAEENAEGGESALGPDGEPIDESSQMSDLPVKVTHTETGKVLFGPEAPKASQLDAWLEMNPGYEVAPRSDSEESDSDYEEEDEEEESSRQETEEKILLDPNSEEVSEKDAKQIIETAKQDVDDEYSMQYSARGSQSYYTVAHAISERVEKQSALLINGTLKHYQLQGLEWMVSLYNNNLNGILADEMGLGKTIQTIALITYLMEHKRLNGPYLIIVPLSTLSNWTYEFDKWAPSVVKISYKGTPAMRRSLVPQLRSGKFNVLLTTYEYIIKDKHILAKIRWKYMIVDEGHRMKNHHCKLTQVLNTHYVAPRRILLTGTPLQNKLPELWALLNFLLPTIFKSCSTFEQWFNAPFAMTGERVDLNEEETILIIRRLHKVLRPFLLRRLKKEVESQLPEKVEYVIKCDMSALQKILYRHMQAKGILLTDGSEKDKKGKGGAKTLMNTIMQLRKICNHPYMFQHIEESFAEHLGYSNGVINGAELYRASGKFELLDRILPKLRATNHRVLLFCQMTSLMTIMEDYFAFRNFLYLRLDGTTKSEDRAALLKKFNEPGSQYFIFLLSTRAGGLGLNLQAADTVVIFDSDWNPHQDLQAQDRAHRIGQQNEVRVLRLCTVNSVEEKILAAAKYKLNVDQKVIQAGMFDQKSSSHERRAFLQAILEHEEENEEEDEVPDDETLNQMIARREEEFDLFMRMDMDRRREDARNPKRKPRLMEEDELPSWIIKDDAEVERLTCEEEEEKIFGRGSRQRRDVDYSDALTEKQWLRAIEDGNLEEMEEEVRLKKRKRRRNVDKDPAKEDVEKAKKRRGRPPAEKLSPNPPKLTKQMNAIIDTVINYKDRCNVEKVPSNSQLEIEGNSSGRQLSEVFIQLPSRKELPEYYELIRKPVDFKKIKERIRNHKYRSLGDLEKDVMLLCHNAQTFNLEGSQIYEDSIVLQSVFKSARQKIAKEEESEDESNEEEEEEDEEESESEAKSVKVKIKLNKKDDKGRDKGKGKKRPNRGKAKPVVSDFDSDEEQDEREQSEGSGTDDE
Method: as §1

GCN5L2 = target: T13, GCN5L2 (Homo sapiens, UniProt Q92830)
T13 construct: gene KAT2A; bromodomain
Method: as §1

CECR2 = target: T14, CECR2 (Homo sapiens, UniProt Q9BXF3)
T14 construct: bromodomain
Method: as §1

BRD7 = target: T15, BRD7 (Homo sapiens, UniProt Q9NPI1)
T15 construct: bromodomain
T15 sequence (Q9NPI1 whole entry): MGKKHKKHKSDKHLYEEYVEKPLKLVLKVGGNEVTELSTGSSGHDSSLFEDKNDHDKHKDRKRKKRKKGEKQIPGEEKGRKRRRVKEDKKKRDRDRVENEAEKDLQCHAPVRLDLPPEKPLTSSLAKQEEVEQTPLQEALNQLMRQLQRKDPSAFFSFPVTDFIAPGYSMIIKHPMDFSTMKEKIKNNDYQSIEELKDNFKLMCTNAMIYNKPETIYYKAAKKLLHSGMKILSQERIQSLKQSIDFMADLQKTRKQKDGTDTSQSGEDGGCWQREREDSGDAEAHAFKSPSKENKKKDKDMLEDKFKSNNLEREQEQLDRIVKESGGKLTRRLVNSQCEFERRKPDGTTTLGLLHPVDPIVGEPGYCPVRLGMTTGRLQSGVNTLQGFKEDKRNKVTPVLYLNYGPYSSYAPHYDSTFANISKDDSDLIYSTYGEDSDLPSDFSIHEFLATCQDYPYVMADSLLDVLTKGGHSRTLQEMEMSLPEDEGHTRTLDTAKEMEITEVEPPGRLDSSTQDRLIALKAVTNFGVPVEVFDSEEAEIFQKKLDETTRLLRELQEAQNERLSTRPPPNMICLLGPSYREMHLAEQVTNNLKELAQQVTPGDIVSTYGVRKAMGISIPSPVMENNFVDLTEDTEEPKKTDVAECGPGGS
Method: as §1

TAF1L(2) = target: T16, TAF1L(2) (Homo sapiens, UniProt Q8IZX4)
T16 construct: bromodomain 2
T16 sequence (Q8IZX4 whole entry): as the sequence (Q8IZX4 whole entry) above
Method: as §1

TRIM28 = target: T17, TRIM28 (Homo sapiens, UniProt Q13263)
T17 construct: bromodomain
Method: as §1

PB1(4) = target: T18, PB1(4) (Homo sapiens, UniProt Q86U86)
T18 construct: gene PBRM1; bromodomain 4
Method: as §1

TAF1(2) = target: T19, TAF1(2) (Homo sapiens, UniProt P21675)
T19 construct: bromodomain 2
Method: as §1

BRD2(2) = target: T20, BRD2(2) (Homo sapiens, UniProt P25440)
T20 construct: bromodomain 2
T20 sequence (P25440 whole entry): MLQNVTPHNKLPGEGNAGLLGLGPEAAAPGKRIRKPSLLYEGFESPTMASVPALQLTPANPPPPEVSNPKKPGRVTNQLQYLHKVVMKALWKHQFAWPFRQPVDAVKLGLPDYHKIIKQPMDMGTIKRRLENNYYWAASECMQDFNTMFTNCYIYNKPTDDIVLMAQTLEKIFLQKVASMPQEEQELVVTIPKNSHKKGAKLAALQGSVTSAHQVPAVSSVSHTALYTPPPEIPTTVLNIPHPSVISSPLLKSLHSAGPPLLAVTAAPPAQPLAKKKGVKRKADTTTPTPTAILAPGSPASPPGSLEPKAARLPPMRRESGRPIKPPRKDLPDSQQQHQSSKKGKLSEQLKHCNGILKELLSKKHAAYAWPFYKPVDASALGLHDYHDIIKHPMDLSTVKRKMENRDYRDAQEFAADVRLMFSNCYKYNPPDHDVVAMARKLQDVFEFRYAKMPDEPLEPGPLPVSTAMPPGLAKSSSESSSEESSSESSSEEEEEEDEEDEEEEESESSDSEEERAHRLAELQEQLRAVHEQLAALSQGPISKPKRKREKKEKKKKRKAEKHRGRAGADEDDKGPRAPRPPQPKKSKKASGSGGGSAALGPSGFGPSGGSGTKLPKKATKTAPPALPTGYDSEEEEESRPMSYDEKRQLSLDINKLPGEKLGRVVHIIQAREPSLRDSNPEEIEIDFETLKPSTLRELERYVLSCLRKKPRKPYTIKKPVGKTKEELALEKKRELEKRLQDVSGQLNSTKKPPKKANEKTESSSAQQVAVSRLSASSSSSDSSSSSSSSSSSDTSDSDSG
Method: as §1

Structure (SMILES): Cc1noc(C)c1-c1ccc2c(c1)[C@H](c1ccccc1)N(C)C2=O [PNZ5]
- ΔTm at 10 µM (ATAD2): 0.13 °C
- ΔTm at 10 µM (TAF1L(1)): 0.31 °C
- ΔTm at 10 µM (SMARCA4): 0.04 °C
- ΔTm at 10 µM (ATAD2B): 0.3 °C
- ΔTm at 10 µM (BAZ1A): 1.2 °C
- ΔTm at 10 µM (PHIP(2)): 0.22 °C
- ΔTm at 10 µM (BRD1): 1.03 °C
- ΔTm at 10 µM (PCAF): 0.45 °C
- ΔTm at 10 µM [1]: 10.1 °C
- ΔTm at 10 µM (PB1(3)): 0.12 °C
- ΔTm at 10 µM (BRPF1A): 0.81 °C
- ΔTm at 10 µM (SMARCA2): -0.18 °C
- ΔTm at 10 µM (GCN5L2): 0.25 °C
- ΔTm at 10 µM (CECR2): 0.19 °C
- ΔTm at 10 µM (BRD7): 0.37 °C
- ΔTm at 10 µM (TAF1L(2)): 0.51 °C
- ΔTm at 10 µM (TRIM28): -0.11 °C
- ΔTm at 10 µM (PB1(4)): 0.36 °C
- ΔTm at 10 µM (TAF1(2)): 0.19 °C
- ΔTm at 10 µM (BRD2(2)): 8.13 °C
